From article PMC8320979, “Probing the role of the residues in the active site of the transaminase from Thermobaculum terrenum” (PLoS ONE, 2021)

Key:
Experiment in all cases: pre-steady-state half-reaction of the PLP form, aldimine decrease at […] nm
Assay type in all cases: biochemical
[1] = target: T1, TaTT (transaminase from Thermobaculum terrenum) (Thermobaculum terrenum, UniProt D1CCW1, G40V/Y100F); details: mP2; 50 mM CHES pH 9.0, 40 °C; no amino acceptor; constant from kobs vs. substrate; read-out: pH 9.0, CHES buffer, 40°C / KD, / mM
T1 construct: gene ilvE; N-terminal His6TEV-tag, expressed in E. coli BL21(DE3)pLys; tag cut by TEV for crystals (309 visible residues, 5 N-terminal and 3 C-terminal residues invisible); functional dimer
T1 sequence (D1CCW1 entry or part of it G40V/Y100F): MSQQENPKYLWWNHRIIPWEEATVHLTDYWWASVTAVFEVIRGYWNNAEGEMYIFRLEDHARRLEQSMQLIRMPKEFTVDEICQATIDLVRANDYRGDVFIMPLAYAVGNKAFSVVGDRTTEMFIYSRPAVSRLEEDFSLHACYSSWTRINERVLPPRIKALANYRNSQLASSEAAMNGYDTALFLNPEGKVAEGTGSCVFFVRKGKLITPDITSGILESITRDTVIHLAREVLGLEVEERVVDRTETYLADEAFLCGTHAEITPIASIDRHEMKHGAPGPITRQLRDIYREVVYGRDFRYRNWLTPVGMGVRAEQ

[2] = target: T2, TaTT (transaminase from Thermobaculum terrenum) (Thermobaculum terrenum, UniProt D1CCW1, G40V/R42S/Y100F/S114R); details: mP3O1; 50 mM CHES pH 9.0, 40 °C; no amino acceptor; constant from kobs vs. substrate; read-out: pH 9.0, CHES buffer, 40°C / KD, / mM
T2 construct: gene ilvE; N-terminal His6TEV-tag, expressed in E. coli BL21(DE3)pLys; tag cut by TEV for crystals (309 visible residues, 5 N-terminal and 3 C-terminal residues invisible); functional dimer
T2 sequence (D1CCW1 entry or part of it G40V/R42S/Y100F/S114R): as the sequence (D1CCW1 entry or part of it G40V/Y100F) above, with R42S, S114R counted along it

[3] = target: T3, TaTT (transaminase from Thermobaculum terrenum) (Thermobaculum terrenum, UniProt D1CCW1, W31H/F38Y/G40V/R42S/Y100F); details: mP3O7; 50 mM Tris-HCl pH 8.0, 30 °C; no amino acceptor; constant from kobs vs. substrate; read-out: pH 8.0, Tris-HCl buffer, 30°C / KD, / mM
T3 construct: gene ilvE; N-terminal His6TEV-tag, expressed in E. coli BL21(DE3)pLys; tag cut by TEV for crystals (309 visible residues, 5 N-terminal and 3 C-terminal residues invisible); functional dimer
T3 sequence (D1CCW1 entry or part of it W31H/F38Y/G40V/R42S/Y100F): as the sequence (D1CCW1 entry or part of it G40V/Y100F) above, with W31H, F38Y, R42S counted along it

[4] = target: T4, TaTT (transaminase from Thermobaculum terrenum) (Thermobaculum terrenum, UniProt D1CCW1); details: 50 mM CHES pH 9.0, 40 °C; no amino acceptor; constant from kobs vs. substrate; read-out: pH 9.0, CHES buffer, 40°C / KD, / mM
T4 construct: gene ilvE; N-terminal His6TEV-tag, expressed in E. coli BL21(DE3)pLys; tag cut by TEV for crystals (309 visible residues, 5 N-terminal and 3 C-terminal residues invisible); functional dimer
T4 sequence (D1CCW1 entry or part of it): as the sequence (D1CCW1 entry or part of it G40V/Y100F) above, with V40G, F100Y counted along it

[5] = target: T5, TaTT (transaminase from Thermobaculum terrenum) (Thermobaculum terrenum, UniProt D1CCW1, S114R); details: mO1; 50 mM CHES pH 9.0, 40 °C; no amino acceptor; constant from kobs vs. substrate; read-out: pH 9.0, CHES buffer, 40°C / KD, / mM
T5 construct: gene ilvE; N-terminal His6TEV-tag, expressed in E. coli BL21(DE3)pLys; tag cut by TEV for crystals (309 visible residues, 5 N-terminal and 3 C-terminal residues invisible); functional dimer
T5 sequence (D1CCW1 entry or part of it S114R): as the sequence (D1CCW1 entry or part of it G40V/Y100F) above, with V40G, F100Y, S114R counted along it

[6] = target: T6, TaTT (transaminase from Thermobaculum terrenum) (Thermobaculum terrenum, UniProt D1CCW1, G40V/R42S/Y100F); details: mP3; 50 mM CHES pH 9.0, 40 °C; no amino acceptor; constant from kobs vs. substrate; read-out: pH 9.0, CHES buffer, 40°C / KD, / mM
T6 construct: gene ilvE; N-terminal His6TEV-tag, expressed in E. coli BL21(DE3)pLys; tag cut by TEV for crystals (309 visible residues, 5 N-terminal and 3 C-terminal residues invisible); functional dimer
T6 sequence (D1CCW1 entry or part of it G40V/R42S/Y100F): as the sequence (D1CCW1 entry or part of it G40V/Y100F) above, with R42S counted along it

- Kd [1]: 13 ± 2 mM
- Kd [2]: 1.5 ± 0.5 mM
- Kd [3]: 44 ± 8 mM
- Kd [4]: 81 ± 8 mM
- Kd [5]: 3.3 ± 1.2 mM
- Kd [6]: 2.6 ± 0.4 mM
Compound: C[C@@H](N)c1ccccc1 [R-PEA, (R)-(+)-1-phenylethylamine]
